# From patent US8580968B2, “Benzothiazole and benzooxazole derivatives and methods of use” (AbbVie Inc., priority 2007, dated 2013)
# Legend:
# Male Sprague Dawley rats = assay: analgesic effect against neuropathic pain (L5/L6 spinal nerve ligation, von Frey mechanical allodynia); type: in vivo, rat; conditions: intraperitoneal injection
# Method: Animals were prepared for testing, by use of a surgical procedure that induces neuropathic pain in one paw. Male Sprague Dawley rats were purchased from Charles River (Portage, Mich.). Prior to surgery, animals were housed in groups and maintained in a temperature-regulated environment. Following nerve ligation surgery, animals were housed in groups, and had access to food and water ad libitum.
# The L5 and L6 spinal nerves of anesthetized rats were tightly ligated in a manner described previously (see Kim and Chung, Pain (1992) vol. 50 pp. 355-363). An incision was made on the dorsal portion of the hip and the muscle was blunt-dissected to reveal the spinal processes. […] The paw affected by the surgical procedure (the left paw) develops an allodynic response, a hypersensitivity to mechanical and other stimuli; neuropathic pain is assessed as an increased sensitivity in the surgically affected (left) allodynic paw compared to the control paw on the right side, and measured by comparing the response of the (left side) allodynic paw to the response of the unaffected right side control paw.
# For the assessment of neuropathic pain, mechanical allodynia in the affected paw of animals that had undergone spinal nerve ligation was evaluated using testing with von Frey filaments. […]
# mice = assay: single trial 24-hour inhibitory avoidance model (memory); type: in vivo, mouse; conditions: 0.03 mg/kg, intraperitoneal injection, p<0.01 versus vehicle injected control mice
# Text: The ability of compounds to treat diseases with deficits in memory and cognition such as Alzheimer's disease, dementia, age-related cognitive impairment, schizophrenia, and cognitive deficits of schizophrenia can be assessed in animal models. One model assessing the capability of a compound to enhance memory is the single trial 24-hour inhibitory avoidance model, described in Tietje et al. (Tietje, K. R., et al. “Preclinical Characterization of A-582941: A Novel α7 Neuronal Nicotinic Receptor Agonist with Broad Spectrum Cognition-Enhancing Properties” CNS Neuroscience and Therapeutics 2008 v14 pp. 65-82). In this mouse model, at a dose of 0.03 mg/kg, administered by intraperitoneal injection, the compound of Example 20 ((R)-2-(2-(3-(piperidin-1-yl)pyrrolidin-1-yl)benzo[d]thiazol-6-yl)pyridazin-3(2H)-one) achieved full efficacy, (p<0.01 versus vehicle injected control mice).
# [1] = test system: adult osteoarthritic rats; assay: osteoarthritis model (MIA-induced knee joint osteoarthritis, hind limb grip force); type: in vivo, rat; conditions: intraperitoneal injection; for effect on hind limb grip force: p<0.01, 20 days after MIA
# Method: Unilateral knee joint osteoarthritis was induced in rats by a single intra-articular (i.a.) injection of sodium monoiodoacetate (MIA) (Sigma-Aldrich, St. Louis, Mo.) (3 mg in 50 μl sterile isotonic saline) into the right knee joint cavity under light (1-3%) isoflurane anesthesia.
# Pain behavior was assessed by measurement of hind limb grip force (GF) in adult osteoarthritic rats. Following the unilateral injection of MIA (male Sprague Dawley, 325-350 g, tested at 20 days following MIA injection), a behavioral measure of activity-induced pain was carried out. Measurements of the peak hind limb grip force were conducted by recording the maximum compressive force (CFmax), in grams of force, exerted on a hind limb strain gauge setup, in a commercially available grip force measurement system (Columbus Instruments, Columbus, Ohio).
# During testing, each rat was gently restrained by grasping it around its rib cage and then allowed to grasp the wire mesh frame attached to the strain gauge. The experimenter then moved the animal in a rostral-to-caudal direction until the grip was broken. Each rat was sequentially tested twice at approximately 2-3 min interval to obtain a raw mean grip force (CFmax). This raw mean grip force data was in turn converted to a maximum hindlimb cumulative compressive force (CFmax), as the grams of force/kg of body weight, for each animal.
# For evaluating the compound effects, the hind limb grip force was conducted 20 days following the intra-articular injection of MIA. A group of age-matched naïve (not injected with MIA) animals was added as a comparator to the drug-dosed groups. The vehicle control response for each group of MIA-treated animals was defined as the 0% response (0% effect), whereas the naïve control group was defined as the normal response and as 100% effect. The % effects for each dose group was expressed as % return of response to normalcy, compared to the naïve group. That is, the % effect=(Treatment CFmax−Vehicle CFmax)/Vehicle CFmax]×100). All experiments evaluating drug effects in this model were conducted in a randomized blinded fashion. […]
smiles,measurement,setting,value
"O=c1cccnn1-c1ccc2nc(N3CC[C@@H](N4CCCCC4)C3)sc2c1 [Example 20, (R)-2-(2-(3-(piperidin-1-yl)pyrrolidin-1-yl)benzo[d]thiazol-6-yl)pyridazin-3(2H)-one]",reduction in mechanical allodynia,"Male Sprague Dawley rats; 3 mg/kg, p<0.01",40%
same,adverse effects,Male Sprague Dawley rats; neuropathic pain model,No complicating adverse effects were observed
same,efficacy in inhibitory avoidance (memory enhancement),mice,full efficacy
same,effect on hind limb grip force,[1]; 1 mg/kg,49%
same,effect on hind limb grip force,[1]; 3 mg/kg,69%
same,adverse effects,[1]; osteoarthritis model,No complicating adverse effects were observed
